Assay results as given in patent US6949577B2, “Pharmaceuticals” (Pfizer, Inc., priority 2000, dated 2005).
Where two headings read alike, the source gives them in different places.

How the values were obtained:
[1] = target: T1, TAFIa (activated human TAFI) (Homo sapiens, UniProt Q96IY4); experiment: Assay for TAFIa inhibition (Ki determination); format: biochemical
T1 sequence (Q96IY4 115-423): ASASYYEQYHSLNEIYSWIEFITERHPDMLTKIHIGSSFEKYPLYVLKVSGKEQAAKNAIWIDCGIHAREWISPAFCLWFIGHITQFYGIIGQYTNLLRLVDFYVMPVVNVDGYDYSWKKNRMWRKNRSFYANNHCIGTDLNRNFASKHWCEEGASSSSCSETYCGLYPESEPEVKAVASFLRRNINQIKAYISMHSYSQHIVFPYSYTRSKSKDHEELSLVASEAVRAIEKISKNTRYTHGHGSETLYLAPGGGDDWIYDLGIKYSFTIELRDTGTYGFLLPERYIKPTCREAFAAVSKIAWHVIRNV
Description: To determine the degree of TAFIa inhibition, compounds were incubated with activated TAFI, and the amount of inhibition expressed in terms of Ki.
Human TAFI (recombinant or purified) was activated by incubating 20 μl of stock solution (360 μg/ml) with 10 μl of human thrombin (10 NIH units/ml), 10 μl of rabbit thrombomodulin (30 μg/ml), 6 μl calcium chloride (50 mM) in 50 μL of 20 mM HEPES (N-[2-hydroxyethyl]piperazine-N-[2-ethanesulfonic acid]) buffer containing 150 mM sodium chloride and 0.01% TWEEN 80 (polyoxyethylene-sorbitan monooleate) pH 7.6 for 20 minutes at 22° C. At the end of the incubation period, thrombin was neutralized by the addition of 10 μL of PPACK (D-Phe-Pro-Arg chloromethyl ketone)(100 nM). TAFIa solution was stored on ice for 5 minutes and finally diluted with 175 μl of HEPES buffer.
A number of different dilutions of the test compound in water were made up. […] To each dilution was then added 20 μl furylacryloyl-alanyl-lysine (FAAL) at a standard concentration. Substrate turn over was measured by reading the absorbance of the reaction mixture at 330 nm every 15 seconds for 30 minutes. Reaction was performed at 24° C. and samples were mixed for 3 seconds prior to each absorbance reading.
A graph of % inhibition against test compound concentration was then plotted; from which was calculated the IC50 value. The Ki value may then be calculated using the Cheng-Prusoff equation.
For the first control, the assay was performed as above, but with 20 μl of water rather than a dilution of the test compound.

[2] = system: thrombi in the left circumflex (LCX) coronary artery; experiment: Lysis of coronary artery thrombi by TAFIa inhibitor in conjunction with t-PA; format: in vivo, dogs; settings: for injured vessels patent at the end of the experiment: 8 dogs/group, all groups received t-PA
Text: The study was designed with 4 groups (8 dogs/group): • (i) aspirin pre-treatment/vehicle infusion; • (ii) no pre-treatment/vehicle infusion; • (iii) no pre-treatment/TAFIa inhibitor; and • (iv) aspirin pre-treatment/TAFIa inhibitor.
Thirty minutes after initiating vehicle or compound infusion a continuous electrical current was delivered to the lumen of the left circumflex (LCX) coronary artery to cause endothelial damage and stimulate the production of a thrombus. Thrombi were allowed to mature for 1 hour prior to attempting to lyse the thrombus and cause vessel reperfusion with t-PA. A total of 4 bolus injections of t-PA (each 0.45 mg/kg i.v.) were given sequentially at 15 minute intervals. Blood flow through the coronary artery was then monitored for a further 2 hours so as to assess vessel patency. Time to vessel occlusion, and reperfusion were measured and the quantity and quality of blood flow analysed post-vessel re-perfusion. In addition, the effect of treatment on surgical bleeding, activated clotting time, cutaneous bleeding and platelet aggregation was also assessed.

[3] = TAFIa, FAAL substrate, Ki calculated from IC50 using Cheng-Prusoff equation, read-out: Ki

Row | Ki [1, 3] | Compound | injured vessels patent at the end of the experiment [2] | other results
1 | 0.31 µM | CCCn1cnc(CC(CCCCN)C(=O)O)c1 (racemic) [Example 3, (±)-6-Amino-2-[(1-n-propyl-1H-imidazol-4-yl)methyl]hexanoic acid] |  | 
2 |  | CCCn1cnc(C[C@H](CCCN)C(=O)O)c1 [Example 7, (+)-(2S)-5-Amino-2-[(1-n-propyl-1H-imidazol-4-yl)methyl]pentanoic acid] | 8/8 | Ki [1]: 0.013 µM; blood flow post-reperfusion (FIG. 1) ([2]; dogs, t-PA 4 x 0.45 mg/kg i.v. boluses, comparison of treatment groups): far superior to tPA alone; proportion of animals in which flow was >75% of baseline at the end of the protocol ([2]; dogs, with t-PA, versus respective controls): significantly increased; period over which improvement in coronary blood flow was maintained ([2]; dogs, with t-PA, whole of the reperfusion period): 165 min
3 | 0.344 µM | NCCN[C@@H](Cc1c[nH]cn1)C(=O)O [Example 11, (2S)-2-[(2-Aminoethyl)amino]-3-(1H-imidazol-4-yl)propanoic acid] |  | 
4 | 0.197 µM | NCCN[C@@H](Cc1cn(Cc2cncs2)cn1)C(=O)O [Example 45, (2S)-2-[(2-Aminoethyl)amino]-3-[1-(1,3-thiazol-5-ylmethyl)-1H-imidazol-4-yl]propanoic acid] |  | 
5 |  | CC(=O)Oc1ccccc1C(=O)O [aspirin, reference compound] | 1/8 | 
